Test results published in patent US4127656A, “Method of inhibiting lipogensis with 3-(benzoyl)oxiranecarboxamides” (Shell Oil Company, priority 1978, dated 1978).

System: lipogenesis (swine adipose tissue)
Assay: inhibition of lipogenesis from glucose-U-14C in pig adipose tissue slices (percent inhibition of lipid synthesis)
Assay type: cell-based, pig (swine)
Conditions: Sus scrofa, 100 micrograms per milliliter, 37° C., 2 hours, triplicate, read-out: Percent Inhibition (of lipogenesis compared to control)
Source text: (§1) The manner in which they cause this effect is not known with certainty; it is believed that they interfere with the synthesis of fatty acids in the tissues. Their effectiveness for this purpose has been ascertained by immersing samples of animal liver or adipose tissue in a liquid medium containing radioactive glucose and the test chemical, for a period of time, then isolating the lipid from the treated tissues and determining the up-take of the radioactive carbon by means of scintillation counting techniques. These tests were conducted in both liver and adipose tissue, because in some animals the primary site of lipogenesis appears to be liver tissue, while in others it appears to be adipose tissue. The test animals were pigs, chickens and sheep.
Described in more detail, the tests were conducted according to the following general procedure:
Tissue slices (200 milligrams for liver and 150 milligrams for adipose tissue) were incubated at 37° C. for 2 hours with shaking in 3 milliliters of Krebs-Ringer bicarbonate solution containing one-half the normal calcium ion concentration, 60 micromoles of glucose, 0.5 microCurie of glucose-U^14 C., 300 microunits of insulin, and 5% dimethyl sulfoxide (DMSO). The test compounds were added as a suspension in DMSO and were present at a concentration of 100 micrograms per milliliter of the incubation mixture.
The incubation was terminated by addition of 0.25 milliliter of 1 N sulfuric acid. The resulting mixture was extracted with a total of 25 milliliters of chloroform:methanol (2:1, v/v). The extracts were washed according to Folch et al. (J. Biol. Chem., 226, 497-509, (1957)), air dried, and counted in a liquid scintillation counter with 15 milliliters of counting fluid (two parts toluene containing 0.4% w/v New England Nuclear Omnifluor:one part Triton X-100). The tests were conducted in triplicate and were accompanied by control tests in which all ingredients,proportions and conditions were the same except that no test compound was included. From the date obtained were calculated the percent inhibition of lipid synthesis by the test compounds in each case.
Compound 1 was tested with respect to all of the animals. The other compounds were tested only with respect to the pig.
From these and other tests, it has been established that in pigs there is little lipogenic activity in the liver tissue. From these and other tests, it also has been established that swine adipose tissue utilizes glucose for lipogenesis, and to be the major site of fatty acid synthesis. The data obtained from the tests using adipose tissue and glucose are set out in Table 1, as the percent inhibition of lipogenesis compared to the results obtained in the control tests wherein only the test compound was omitted.

Row | Structure (SMILES) | inhibition at 100 µg/mL [%]
1 | NC(=O)[C@@H]1O[C@H]1C(=O)c1ccc(Cl)cc1 (relative stereo) [Compound 1, 3-(4-chlorobenzoyl)oxiranecarboxamide(trans)] | 94
2 | CN(C)C(=O)[C@@H]1O[C@H]1C(=O)c1ccc(Cl)cc1 (relative stereo) [Compound 2, 3-(4-chlorobenzoyl)-N,N-dimethyloxiranecarboxamide(trans)] | 70
3 | CNC(=O)[C@@H]1O[C@H]1C(=O)c1ccc(Cl)cc1 (relative stereo) [Compound 3, 3-(4-chlorobenzoyl)-N-methyloxiranecarboxamide(trans)] | 96
4 | NC(=O)[C@@H]1O[C@H]1C(=O)c1ccc(Cl)c(Cl)c1 (relative stereo) [Compound 4, 3-(3,4-dichlorobenzoyl)oxiranecarboxamide(trans)] | 96
5 | Cc1ccc(C(=O)[C@@H]2O[C@H]2C(N)=O)cc1 (relative stereo) [Compound 5, 3-(4-methylbenzoyl)oxiranecarboxamide(trans)] | 89
6 | NC(=O)[C@@H]1O[C@H]1C(=O)c1ccccc1 (relative stereo) [Compound 6, 3-(benzoyl)oxiranecarboxamide(trans)] | 91
7 | CC(C)NC(=O)[C@@H]1O[C@H]1C(=O)c1ccc(Cl)cc1 (relative stereo) [Compound 7, 3-(4-chlorobenzoyl)-N-(1-methylethyl)oxiranecarboxamide(trans)] | 90
8 | NC(=O)[C@@H]1O[C@H]1C(=O)c1cccc([N+](=O)[O-])c1 (relative stereo) [Compound 8, 3-(3-nitrobenzoyl)oxiranecarboxamide(trans)] | 96
9 | C=CCNC(=O)[C@@H]1O[C@H]1C(=O)c1ccc(Cl)cc1 (relative stereo) [Compound 9, 3-(4-chlorobenzoyl)-N-(2-propenyl)oxiranecarboxamide(trans)] | 94
10 | O=C(c1ccc(Cl)cc1)[C@@H]1O[C@H]1C(=O)N1CCOCC1 (relative stereo) [Compound 10, (4-chlorophenyl) (3-(4-morpholinylcarbonyl)oxiranyl)methanone(trans)] | 77
11 | CC(=O)Nc1ccc(C(=O)[C@@H]2O[C@H]2C(N)=O)cc1 (relative stereo) [Compound 11, 3-(4-acetamidobenzoyl)oxiranecarboxamide(trans)] | 23
12 | COc1ccc(C(=O)[C@@H]2O[C@H]2C(N)=O)cc1 (relative stereo) [Compound 12, 3-(4-methoxybenzoyl)oxiranecarboxamide(trans)] | 64
13 | C#CCNC(=O)[C@@H]1O[C@H]1C(=O)c1ccc(Cl)cc1 (relative stereo) [Compound 13, 3-(4-chlorobenzoyl)-N-(2-propynyl)oxiranecarboxamide(trans)] | 87
14 | NC(=O)[C@@H]1O[C@H]1C(=O)c1ccc(Br)cc1 (relative stereo) [Compound 14, 3-(4-bromobenzoyl)oxiranecarboxamide(trans)] | 90
15 | NC(=O)[C@@H]1O[C@H]1C(=O)c1ccc(F)cc1 (relative stereo) [Compound 15, 3-(4-fluorobenzoyl)oxiranecarboxamide(trans)] | 90
16 | NC(=O)[C@@H]1O[C@H]1C(=O)c1ccc(Cl)cc1Cl (relative stereo) [Compound 16, 3-(2,4-dichlorobenzoyl)oxiranecarboxamide(trans)] | 91
17 | NC(=O)[C@@H]1O[C@H]1C(=O)c1cccc(C(F)(F)F)c1 (relative stereo) [Compound 17, 3-(3-(trifluoromethyl)benzoyl)oxiranecarboxamide(trans)] | 94

System: lipogenesis (liver)
Assay: inhibition of glucose incorporation into lipid in sheep liver tissue slices
Assay type: cell-based
Conditions: 100 micrograms per milliliter, 37° C., 2 hours
Source text: as §1
(§2) Described in more detail, the tests were conducted according to the following general procedure: […]
(§3) The incubation was terminated by addition of 0.25 milliliter of 1 N sulfuric acid. […] The extracts were washed according to Folch et al. (J. Biol. Chem., 226, 497-509, (1957)), air dried, and counted in a liquid scintillation counter with 15 milliliters of counting fluid (two parts toluene containing 0.4% w/v New England Nuclear Omnifluor:one part Triton X-100). […] From the date obtained were calculated the percent inhibition of lipid synthesis by the test compounds in each case. […]

Row | Structure (SMILES) | inhibition of glucose incorporation in the liver [%]
18 | NC(=O)[C@@H]1O[C@H]1C(=O)c1ccc(Cl)cc1 (relative stereo) [Compound 1, 3-(4-chlorobenzoyl)oxiranecarboxamide(trans)] | 15

System: lipogenesis (liver)
Assay: inhibition of glucose incorporation into lipid in chicken liver tissue slices
Assay type: cell-based
Conditions: 100 micrograms per milliliter, 37° C., 2 hours
Source text: as §1, §2, §3

Row | Structure (SMILES) | inhibition of glucose incorporation into the liver [%]
19 | NC(=O)[C@@H]1O[C@H]1C(=O)c1ccc(Cl)cc1 (relative stereo) [Compound 1, 3-(4-chlorobenzoyl)oxiranecarboxamide(trans)] | 54

System: lipogenesis (adipose tissue)
Assay: inhibition of glucose incorporation into lipid in sheep adipose tissue slices
Assay type: cell-based
Conditions: 100 micrograms per milliliter, 37° C., 2 hours
Source text: as §1, §2, §3

Row | Structure (SMILES) | inhibition of glucose incorporation in adipose tissue [%]
20 | NC(=O)[C@@H]1O[C@H]1C(=O)c1ccc(Cl)cc1 (relative stereo) [Compound 1, 3-(4-chlorobenzoyl)oxiranecarboxamide(trans)] | 65
